Laboratory results reported in PMC8231400, “Synthesis, biological evaluation and molecular docking investigation of new sulphonamide derivatives bearing naphthalene moiety as potent tubulin polymerisation inhibitors” (Journal of Enzyme Inhibition and Medicinal Chemistry, 2021).
One block for each molecule: values may come before it.

Experiments:
[1] = tested on: MCF-7 human breast cancer cells; assay: In vitro antiproliferative assay (CCK-8), MCF-7; format: cell-based; details: CCK-8, 48 h, mean of three experiments
Procedure: (§1) In vitro antiproliferative assay 179 Human breast cancer cell line (MCF -7) and human non-small cell lung 180 carcinoma cell line (A549) were used to determine the antiproliferative of 181 the test compounds by CCK -8 assay. The cells were cultured in RPMI 182 media with 10% fetal bovine serum at 37 °C and 5% CO2 in a humidify 183 environment. In a word, cells were seeded in 96 -well plates 184 (1×10^5 cells/well) and cultured for overnight. […] Finally, 186 cell viability was determined by the CCK -8 method. 187 1.3. […] 190 EGTA) with 1 mM GTP and 5% glycerol. Then the plate was 191 immediately transferred to the spectrophotometer and microtubule 192 polymerization was monitored under 340 nm at 37 °C every 1 min over 193 20 min. […] 196 then the cells were treated with different concentrations of compound 5c 7

[2] = tested on: A549 human non-small cell lung carcinoma cells; assay: In vitro antiproliferative assay (CCK-8), A549; format: cell-based; details: CCK-8, 48 h, mean of three experiments
Procedure: as §1

MCF-7 cancer cells [3] = assay: Annexin V-FITC/PI cell apoptosis assay; format: cell-based, human; set-up: Q1 quadrant / Q2 quadrant (upper right, late apoptotic cells) / Q4 quadrant / Q3 quadrant (lower right, early apoptotic cells): unit not given here; details: 24 h
Procedure: Since many literatures have reported that tubulin polymerisation inhibitors are able to induce cellular apoptosis [22]^,[30], the Annexin V-FITC/PI assay was carried out to examine the influence of compound 5c on cell apoptosis in MCF-7 cancer cells. […]
201 1.5. Cell apoptosis assay
203 then the cells were treated with different concentrations of compound 5c
204 for 24 h. Subsequently, the cells were incubated with Annexin-V/FITC
205 binding buffer and PI staining solution at room temperature. Finally, the
206 stained cells were analyzed using flow cytometry.
207 1.6. […]

tubulin = assay: In vitro tubulin polymerisation inhibitory assay (absorbance 340 nm); format: biochemical; details: 37 °C, 20 min, read-out: IC50 tubulin polymerisation inhibition
Procedure: In vitro antiproliferative assay 179 Human breast cancer cell line (MCF -7) and human non-small cell lung 180 carcinoma cell line (A549) were used to determine the antiproliferative of 181 the test compounds by CCK -8 assay. The cells were cultured in RPMI 182 media with 10% fetal bovine serum at 37 °C and 5% CO2 in a humidify 183 environment. In a word, cells were seeded in 96 -well plates 184 (1×10^5 cells/well) and cultured for overnight. […] Finally, 186 cell viability was determined by the CCK -8 method. 187 1.3. […] 190 EGTA) with 1 mM GTP and 5% glycerol. Then the plate was 191 immediately transferred to the spectrophotometer and microtubule 192 polymerization was monitored under 340 nm at 37 °C every 1 min over 193 20 min.

[4] = Cytotoxicity against human normal liver cell line; format: cell-based; details: LO2 normal liver cells
MCF-7 cancer cells [5] = assay: Cell cycle assay by flow cytometry (PI); format: cell-based, human; details: 24 h
Procedure: Due to microtubules play an important role in eukaryotic cell division, tubulin polymerisation inhibitors can disrupt regulated cell cycle distribution and block the cell cycle in G2/M phase [21]^,[29]. Therefore, the effect of compound 5c on the cell cycle of MCF-7 cancer cells was evaluated by using flow cytometry. […] 172 51.01, 56.22, 60.63, 107.33, 125.00, 125.21, 125.24, 127.40, 128.17, […] HRMS (ESI) calcd for [M+Na] + 175 C26H24N2NaO7S+: 531.1196 found 531.1162. Elemental analysis for 176 C26H24N2O7S: C, 61.41; H, 4.76; N, 5.51; S, 6.30 found C, 61.52; H, 177 4.702; N, 5.21; S, 6.100. […] In vitro antiproliferative assay 179 Human breast cancer cell line (MCF -7) and human non-small cell lung 180 carcinoma cell line (A549) were used to determine the antiproliferative of 181 the test compounds by CCK -8 assay. The cells were cultured in RPMI 182 media with 10% fetal bovine serum at 37 °C and 5% CO2 in a humidify 183 environment. In a word, cells were seeded in 96 -well plates 184 (1×10^5 cells/well) and cultured for overnight. After incubation, the cells 185 were treated with test compounds and positive control for 48 h. Finally, 186 cell viability was determined by the CCK -8 method. 187 1.3. In vitro tubulin polymerization inhibitory assay 188 Tubulin protein was mixed with different concentrations of compound 5c […] 190 EGTA) with 1 mM GTP and 5% glycerol. Then the plate was 191 immediately transferred to the spectrophotometer and microtubule 192 polymerization was monitored under 340 nm at 37 °C every 1 min over 193 20 min. […] Cell cycle assay 195 MCF-7 cells were seeded into 6-well plates and incubated for 24 h, and 196 then the cells were treated with different concentrations of compound 5c 7 page 8: 197 for 24 h. After incubation, the cells were harvested by centrifugation, and 198 fixed in ice-cold 70% ethanol overnight. After removed the ethanol, the 199 cells were incubated with RNase and propidium iodide. Finally, the 200 samples were analyzed by flow cytometry. 201 1.5. Cell apoptosis assay […] 203 then the cells were treated with different concentrations of compound 5c 204 for 24 h. Subsequently, the cells were incubated with Annexin-V/FITC 205 binding buffer and PI staining solution at room temperature. Finally, the 206 stained cells were analyzed using flow cytometry. 207 1.6. Molecular docking 208 Molecular docking studies were performed to investigate the binding […] The 210 three-dimensional (3D) coordinate of tubulin (PDB ID: 1SA0) was 211 downloaded from Protein Data Bank (www.rcsb.org). The 3D structure of 212 the compounds was obtained by ChemBioDraw Ultra 14.0 and 213 ChemBio3D Ultra 14.0 softwares. The AutoDockTools 1.5.6 package was 214 employed to generate the docking input files. The search grid of tubulin 215 was identified as center_x: 118.921, center_y: 89.718, and center_z: 216 5.932 with dimensions size_x: 15, size_y: 15, and size_z: 15. The value 217 of exhaustiveness was set to 20. For Vina docking, the default parameters 218 were used if it was not mentioned. The best-scoring pose as judged by the 219 Vina docking score was chosen and visually analyzed using PyMoL 1.7.6 220 software (www.pymol.org). 221 1.7 Molecular dynamics 222 The Amber 12 1-3 and AmberTools 13 programs were used for MD 223 simulations of the selected docked pose. MBPPS was first prepared by 224 ACPYPE 4, a tool based on ANTECHAMBER 5, 6 for generating 8

Compound: O=c1[nH]cc(F)c(=O)[nH]1 [5-Fu, 5-fluorouracil, reference compound]
- IC50 ([1]; Homo sapiens, MCF7): 11.6 ± 0.6 µM
- IC50 ([2]; Homo sapiens, A549): 2.75 ± 0.31 µM

Compound: COc1ccc(CN(c2cc(OC)c(OC)c(OC)c2)S(=O)(=O)c2ccc(C)cc2)cc1 [5a]
- IC50 ([1]; Homo sapiens, MCF7): 3.64 ± 0.25 µM
- IC50 ([2]; Homo sapiens, A549): 5.34 ± 0.31 µM

Compound: COc1ccc(CN(c2cc(OC)c(OC)c(OC)c2)S(=O)(=O)c2ccccc2)cc1 [5b]
- IC50 ([1]; Homo sapiens, MCF7): > 30 µM
- IC50 ([2]; Homo sapiens, A549): > 30 µM

Compound: COc1ccc(CN(c2cc(OC)c(OC)c(OC)c2)S(=O)(=O)c2cccc3ccccc23)cc1 [5c]
- IC50 ([1]; Homo sapiens, MCF7): 0.51 ± 0.03 µM
- Q1 quadrant (MCF-7 cancer cells [3]; MCF-7, 0.125 μM): 0.88
- Q2 quadrant (upper right, late apoptotic cells) (MCF-7 cancer cells [3]; MCF-7, 0.125 μM): 11.3
- Q3 quadrant (lower right, early apoptotic cells) (MCF-7 cancer cells [3]; MCF-7, 0.125 μM): 7.37
- Q4 quadrant (MCF-7 cancer cells [3]; MCF-7, 0.125 μM): 80.4
- total numbers of early and late apoptotic cells (MCF-7 cancer cells [3]; MCF-7, 0.125 μM): 18.67%
- Q1 quadrant (MCF-7 cancer cells [3]; MCF-7, 0.25 μM): 0.77
- Q2 quadrant (upper right, late apoptotic cells) (MCF-7 cancer cells [3]; MCF-7, 0.25 μM): 12.6
- Q3 quadrant (lower right, early apoptotic cells) (MCF-7 cancer cells [3]; MCF-7, 0.25 μM): 20.5
- Q4 quadrant (MCF-7 cancer cells [3]; MCF-7, 0.25 μM): 66.1
- total numbers of early and late apoptotic cells (MCF-7 cancer cells [3]; MCF-7, 0.25 μM): 33.1%
- total numbers of early and late apoptotic cells (MCF-7 cancer cells [3]; MCF-7, 0.5 µM): 50.3%
- Q1 quadrant (MCF-7 cancer cells [3]; MCF-7, 0.50 μM): 0.58
- Q2 quadrant (upper right, late apoptotic cells) (MCF-7 cancer cells [3]; MCF-7, 0.50 μM): 17.7
- Q3 quadrant (lower right, early apoptotic cells) (MCF-7 cancer cells [3]; MCF-7, 0.50 μM): 32.6
- Q4 quadrant (MCF-7 cancer cells [3]; MCF-7, 0.50 μM): 49.2
- IC50 (tubulin): 2.8 µM
- IC50 [4]: 12.7 ± 3.26 µM
- G1 population (MCF-7 cancer cells [5]; MCF-7, 0.125 μM): 44.63%
- G2/M population (MCF-7 cancer cells [5]; MCF-7, 0.125 μM): 30.77%
- S population (MCF-7 cancer cells [5]; MCF-7, 0.125 μM): 24.59%
- G1 population (MCF-7 cancer cells [5]; MCF-7, 0.25 μM): 6.61%
- G2/M population (MCF-7 cancer cells [5]; MCF-7, 0.25 μM): 57.50%
- S population (MCF-7 cancer cells [5]; MCF-7, 0.25 μM): 35.89%
- G2/M population (MCF-7 cancer cells [5]; MCF-7, 0.5 µM): 82.22%
- G1 population (MCF-7 cancer cells [5]; MCF-7, 0.50 μM): 6.89%
- S population (MCF-7 cancer cells [5]; MCF-7, 0.50 μM): 10.89%
- IC50 ([2]; Homo sapiens, A549): 0.33 ± 0.01 µM

Compound: COc1ccc(CN(c2cc(OC)c(OC)c(OC)c2)S(=O)(=O)c2ccc3ccccc3c2)cc1 [5d]
- IC50 ([1]; Homo sapiens, MCF7): 5.72 ± 0.18 µM
- IC50 ([2]; Homo sapiens, A549): > 30 µM

Compound: COc1ccc(CN(c2cc(OC)c(OC)c(OC)c2)S(=O)(=O)c2ccc(OC)cc2)cc1 [5e]
- IC50 ([1]; Homo sapiens, MCF7): 0.87 ± 0.05 µM
- IC50 ([2]; Homo sapiens, A549): 0.62 ± 0.04 µM

Compound: COc1ccc(/C=C\c2cc(OC)c(OC)c(OC)c2)cc1O [CA-4, combretastatin A-4, reference compound]
- IC50 ([1]; Homo sapiens, MCF7): 5.55 ± 0.11 µM
- IC50 ([2]; Homo sapiens, A549): 0.029 ± 0.004 µM

Compound: N.N.[Cl][Pt][Cl] [Cisplatin, reference compound]
- IC50 [1]: 11.2 ± 0.75 µM
- IC50 [2]: 4.92 ± 0.46 µM

Second part, the molecule after the results:

- IC50 ([1]; Homo sapiens, MCF7): 20 ± 0.71 µM
- IC50 ([2]; Homo sapiens, A549): > 30 µM
Compound: COc1cccc(CN(c2cc(OC)c(OC)c(OC)c2)S(=O)(=O)c2cccc3ccccc23)c1 [8a]

- IC50 ([1]; Homo sapiens, MCF7): 2.2 ± 0.19 µM
- IC50 ([2]; Homo sapiens, A549): 1.29 ± 0.19 µM
Compound: COc1cc(N(Cc2ccc(C)cc2)S(=O)(=O)c2cccc3ccccc23)cc(OC)c1OC [8b]

- IC50 ([1]; Homo sapiens, MCF7): > 30 µM
- IC50 ([2]; Homo sapiens, A549): > 30 µM
Compound: COc1cc(N(Cc2cccc(F)c2)S(=O)(=O)c2cccc3ccccc23)cc(OC)c1OC [8c]

- IC50 ([1]; Homo sapiens, MCF7): 8.02 ± 0.58 µM
- IC50 ([2]; Homo sapiens, A549): > 30 µM
Compound: COc1cc(N(Cc2ccc(Br)cc2)S(=O)(=O)c2cccc3ccccc23)cc(OC)c1OC [8d]

- IC50 ([1]; Homo sapiens, MCF7): 15.6 ± 0.34 µM
- IC50 ([2]; Homo sapiens, A549): 14.4 ± 0.8 µM
Compound: COc1cc(N(Cc2ccc(Cl)cc2)S(=O)(=O)c2cccc3ccccc23)cc(OC)c1OC [8e]

- IC50 ([1]; Homo sapiens, MCF7): > 30 µM
- IC50 ([2]; Homo sapiens, A549): > 30 µM
Compound: COc1cc(N(Cc2cccc(Br)c2)S(=O)(=O)c2cccc3ccccc23)cc(OC)c1OC [8f]

- IC50 ([1]; Homo sapiens, MCF7): > 30 µM
- IC50 ([2]; Homo sapiens, A549): > 30 µM
Compound: COc1cc(N(Cc2ccc(F)cc2)S(=O)(=O)c2cccc3ccccc23)cc(OC)c1OC [8g]

- IC50 ([1]; Homo sapiens, MCF7): > 30 µM
- IC50 ([2]; Homo sapiens, A549): > 30 µM
Compound: COc1cc(N(Cc2ccc(C#N)cc2)S(=O)(=O)c2cccc3ccccc23)cc(OC)c1OC [8h]

- IC50 ([1]; Homo sapiens, MCF7): > 30 µM
- IC50 ([2]; Homo sapiens, A549): 4.76 ± 0.31 µM
Compound: COc1cc(N(Cc2ccccc2[N+](=O)[O-])S(=O)(=O)c2cccc3ccccc23)cc(OC)c1OC [8i]
